Source: ChEMBL document CHEMBL2021886, “Identification of a series of 1,3,4-oxadiazol-2-amines as potent alpha-7 agonists with efficacy in the novel object recognition model of cognition” (Bioorg Med Chem Lett, 2012)

Legend:
Liver [1] = experiment: Clearance in human liver assessed per gram of tissue; type: ADME, tissue-based
[2] = Drug uptake in Lister Hooded rat blood at 3 mg/kg, po after 3 hrs; type: ADME, organism-based; design: dose 3 mg/kg, route oral; settings: read-out: Drug uptake
[3] = Blood clearance in Sprague-Dawley rat at 1 mg/kg, iv; type: ADME, organism-based; design: dose 1 mg/kg, route intravenous
[4] = Ratio of drug level in brain to blood in Lister Hooded rat at 3 mg/kg, po after 3 hrs; type: ADME, organism-based; design: dose 3 mg/kg, route oral
Liver [5] = experiment: Clearance in rat liver assessed per gram of tissue; type: ADME, tissue-based; settings: in vivo
[6] = Half life in Sprague-Dawley rat at 1 mg/kg, iv; type: ADME, organism-based; design: dose 1 mg/kg, route intravenous; settings: in vivo
[7] = Intrinsic permeability of the compound in MDCK cells expressing MDR1; type: ADME, cell-based, Canis lupus familiaris; settings: dog
Blood = experiment: Drug level in novel object recognition model of rat blood at 0.1 mg/kg, po; type: ADME, organism-based; design: dose 0.1 mg/kg, route oral; settings: in vivo, read-out: Drug uptake

Row | CLH (Liver [1]) | concentration at 3 h [2] | clearance [3] | Kp at 3 h [4] | CLH (Liver [5]) | half-life [6] | Papp [7] | concentration (Blood) | Structure (SMILES)
1 | < 0.3 mL/min/g | 270 nM | 28 mL/min/kg | 0.4 | < 0.5 mL/min/g | 3.2 h |  |  | COc1cc(NC(=O)c2ccccc2F)ccc1-c1nnc(NCCCN2CCCCC2)o1.Cl
2 |  |  |  |  |  |  | 32.5 ×10⁻⁶ cm/s | 205 nM | COc1cc(NC(=O)c2ccccc2F)ccc1-c1nnc(NCCCN2CCCCC2)o1
3 | 0.5 mL/min/g | 294 nM | 41 mL/min/kg | 0.12 | < 0.5 mL/min/g | 0.6 h |  |  | COc1cc(NC(=O)c2ccccc2F)ccc1-c1nnc(NCCCN2CCOCC2)o1.Cl
4 | 0.5 mL/min/g | 205 nM | 67 mL/min/kg | 1.7 | < 0.2 mL/min/g | 2.9 h |  |  | Cl.O=C(Nc1ccc(-c2nnc(NCCCN3CCCCC3)o2)cc1)c1ccccc1F
